# System: diabetic retinopathy in patients with type 2 diabetes
# Experiment: FIELD study: laser treatment for diabetic retinopathy (tertiary outcome)
# Format: in vivo, human
# Settings: follow-up more than 5 years
# Excerpt: As fibrates are known to correct the typical dyslipidaemia of diabetes, their role in cardiovascular risk reduction in diabetes may be especially important. A study called Fenofibrate Intervention and Event Lowering in Diabetes (FIELD) has been carried out which study is a multicentre, double-blind, placebo-controlled trail evaluating the effects on coronary morbidity and mortality of long-term treatment with fenofibrate to elevate high-density lipoprotein (HDL) cholesterol levels and lower triglyceride (TG) levels in patients with type 2 diabetes and total blood cholesterol between 3 and 6.5 mmol/L (115 and 250 mg/dL) at study entry. In type 2 diabetes, rates of coronary heart disease (CDH) are 3 to 4 times higher than those of persons without diabetes at any given level of blood cholesterol, and at any given age. […] Further, people with type 2 diabetes have both higher in hospital mortality after myocardial infarction (MI) and a poorer outcome in the subsequent years, losing on average between 5 and 10 years of life expectancy.
# The study was is randomized, double-blind, placebo-controlled parallel-group trial among middle-aged to elderly people with type 2 diabetes mellitus considered to be at increased risk of CHD. Those with and without pre-existing vascular disease or other lipid abnormalities, such as low HDL cholesterol and elevated TG, were eligible, provided the total blood cholesterol level at screening fell between 3.0 and 6.5 mmol/L (about 115-250 mg/dL) plus either a total-to-HDL cholesterol ratio of >4.0 or a blood TG level >1.0 mmol/L (88.6 mg/dL). The study has been conducted in 63 clinical centres in Australia (39), Finland (9) and New Zealand (15).
# The underlying principle guiding recruitment of patients into the study was that of clinical uncertainty: that is, patients were only to be considered if the patients' treating physicians were substantially uncertain about the value of lipid-modifying therapy for that particular individual and felt that there was no indication for lipid-modifying therapy. […]
structure (smiles),measurement,setting,value
"CC(C)OC(=O)C(C)(C)Oc1ccc(C(=O)c2ccc(Cl)cc2)cc1 [Fenofibrate, 1-methylethyl ester (isopropyl ester) of fenofibric acid]","Patients with laser treatment for diabetic retinopathy (one or more laser treatments), %","fenofibrate 200 mg comicronized, one capsule daily, type 2 diabetes",3.6%
same,"Incident cases (first laser treatment for retinopathy post-randomisation), %",fenofibrate 200 mg daily,2.3%
same,"Prevalent cases (all reported laser treatments post-randomisation), %",fenofibrate 200 mg daily,7.3%
